According to paper PMC9194530, “Interaction of Colchicine-Site Ligands With the Blood Cell-Specific Isotype of β-Tubulin—Notable Affinity for Benzimidazoles” (Frontiers in Cell and Developmental Biology, 2022):
Like-named read-outs stand apart in the source and are kept apart here.

Assays:
[1] = molecular target: T1, Brain tubulin (BTb), colchicine site (Bos taurus, UniProt Q6B856); assay: Competition titration with MDL (fluorescence), brain tubulin; type: binding, bovine or rat
T1 construct: from tissue; host or cells: mammalian brain: either rat brain (purified in house) or bovine brain (bought from Cytoskeleton #HTS02-A or Sigma-Aldrich #T4925)

[2] = molecular target: Erythrocyte tubulin (CeTb), colchicine site (Gallus gallus, UniProt P09207); assay: biochemical; type: binding, chicken (Gallus gallus)
BTb, colchicine site = molecular target: T2, BTb, colchicine site (Bos taurus, UniProt Q6B856); assay: Single-point MDL competitive binding inhibition screen, brain tubulin; parameters: species or system bovine or rat; conditions: for inhibition at 50 µM: read-out: BTb % (inhibition of MDL binding)
T2 construct: from tissue; host or cells: mammalian brain: either rat brain (purified in house) or bovine brain (bought from Cytoskeleton #HTS02-A or Sigma-Aldrich #T4925)

CeTb, colchicine site = CeTb, colchicine site (Gallus gallus, UniProt P09207); assay: Single-point MDL competitive binding inhibition screen, erythrocyte tubulin; parameters: species or system chicken (Gallus gallus); conditions: for Kd: from single-point data (50 µM drug) fitted with single-site isotherm, Eq. 4, read-out: CeTb Kd(app); for inhibition at 50 µM: read-out: CeTb % (inhibition of MDL binding)
[3] = molecular target: T3, bovine brain microtubule protein (tubulin plus microtubule-associated proteins) (Bos taurus, UniProt Q6B856); assay: GTP-induced polymerization of bovine brain microtubule protein (turbidity at 350 nm); type: biochemical; conditions: albendazole 12-60 µM, 15 µM microtubule protein, 1 mM GTP, 37 °C, 2% DMSO
T3 construct: from tissue; host or cells: bovine brain; microtubule protein purified by the method of Williams and Lee, 1982
Description: albendazole (ABZ). 15 µM bovine brain microtubule protein (tubulin plus microtubule-associated proteins, purified according to (Williams and Lee, 1982), in PME buffer was incubated with varying concentrations of albendazole for 40 min at room temperature.
The samples were equilibrated to 37 °C in the cell holder of a UV-Vis spectrophotometer (HP8453, Hewlett Packard, Palo Alto, CA). A baseline was recorded before adding GTP to a concentration of 1 mM to induce microtubule assembly. All samples had 2% (v/v) DMSO. The extent of polymerization was determined by the increase of turbidity as measured by the apparent absorbance at 350 nm.

BBTb = molecular target: BBTb; parameters: method as in Lin et al., 1989; conditions: read-out: Kd combretastatin A4, literature value; ref Lin et al., 1989; cited from earlier work
Brain tubulin (BTb) = molecular target: T4, Brain tubulin (BTb) (Bos taurus, UniProt Q6B856); assay: Inhibition of taxol-induced tubulin polymerization (absorbance at 350 nm), brain tubulin; type: biochemical, bovine or rat; conditions: tubulin 2 µM, taxol 2 µM, drugs 20 µM; polymerization with taxol alone = 100%
T4 construct: from tissue; host or cells: mammalian brain: either rat brain (purified in house) or bovine brain (bought from Cytoskeleton #HTS02-A or Sigma-Aldrich #T4925)
Description: (§1) Tubulin was polymerized at a concentration of 2 µM in PM buffer (0.1 M Pipes pH 7, 1 mM MgCl2) + 0.1 mM GTP in a volume of 60 µL. The reaction mixture was transferred to a 10-mm pathlength microcuvette (Hellma United States Inc., Plainview, NY) and placed in the cuvette holder of a SpectraMax M2 Multimode Microplate Reader (Molecular Devices, San Jose, CA) equipped with temperature control set at 37°C for these experiments. Drugs at 20 µM were added directly to the polymerization mixture and incubated for 15 min previous to starting the recordings. Tubulin polymerization kinetics was followed by recording the absorbance at 350 nm. After recording the baseline, tubulin polymerization was induced by the addition of 2 µM paclitaxel (taxol). The final concentration of DMSO in the mixtures was 4%–5% v/v.
(§2) FIGURE 2 Inhibition of tubulin polymerization by colchicine-site drugs. Tubulin from brain (A) or from erythrocytes (B) was incubated at 2 µM in polymerization buffer at 37°C, and the absorbance at 350 nm was registered for 10 min prior to starting the polymerization by the addition of taxol 2 µM (arrow). Drugs were included in polymerization buffer and used at a concentration of 20 µM.

[4] = molecular target: Erythrocyte tubulin (CeTb) (Gallus gallus, UniProt P09207); assay: Inhibition of taxol-induced tubulin polymerization (absorbance at 350 nm), erythrocyte tubulin; type: biochemical, chicken (Gallus gallus)
Description: as §1, §2

[5] = molecular target: Chicken brain tubulin (CBTb); assay: MDL fluorescence dilution titration, chicken brain tubulin; type: binding; conditions: 1 µM tubulin, PM buffer, 5% DMSO, 25°C; ± standard error of fit
Rat brain tubulin (RBTb) = molecular target: T5, Rat brain tubulin (RBTb) (Rattus norvegicus, UniProt Q3KRE8); assay: MDL fluorescence dilution titration, rat brain tubulin; type: binding; conditions: 1 µM tubulin, PM buffer, 5% DMSO, 25°C; ± standard error of fit
T5 construct: Rat brain tubulin was purified from microtubule protein previously extracted from frozen rat brains; from tissue; host or cells: frozen rat brains; tubulin purified in house from microtubule protein

[6] = molecular target: T6, Bovine brain tubulin (BBTb) (Bos taurus, UniProt Q6B856); assay: MDL fluorescence dilution titration, bovine brain tubulin; type: binding; conditions: 1 µM tubulin, PM buffer, 5% DMSO, 25°C; ± standard error of fit
T6 construct: purchased Cytoskeleton, Inc. or Sigma-Aldrich #HTS02-A or #T4925; host or cells: bovine brain

[7] = molecular target: Chicken erythrocyte tubulin (CeTb) (Gallus gallus, UniProt P09207); assay: MDL fluorescence dilution titration, chicken erythrocyte tubulin; type: binding
BTb = molecular target: BTb; parameters: method as in Head et al., 1985; conditions: read-out: Kd nocodazole, published value; ref Head et al., 1985; cited from earlier work
rat brain tubulin = molecular target: rat brain tubulin; parameters: method as in Cortese et al., 1977; conditions: tritiated podophyllotoxin, ref Cortese et al., 1977, read-out: Kd podophyllotoxin, literature value; cited from earlier work
[8] = competition titration, 1 µM tubulin, 5 µM MDL, calculated with Equation 4, nb = no binding detected
[9] = competition titration, 1 µM tubulin, 5 µM MDL, nb = no binding detected
[10] = competition titration, 1 µM tubulin, 5 µM MDL
[11] = competition titration, 1 µM tubulin, 5 µM MDL, calculated with Equation 4, read-out: Erythrocyte tubulin (CeTb) Kd
[12] = summary of competition titrations with MDL, read-out: Erythrocyte tubulin (CeTb) Kd (Table 4, selected drugs)
[13] = 50 µM drug, 1 µM tubulin, 5 µM MDL, single point
[14] = tubulin 2 µM, taxol 2 µM, drugs 20 µM, polymerization with taxol alone = 100%

Row | SMILES | Brain tubulin (BTb) Kd [1, 8] | Brain tubulin (BTb) IC50 [1, 9] | IC50 [2, 10] | Kd [2, 11] | Kd [2, 12] | CeTb % (inhibition of MDL binding) (CeTb, colchicine site; [13]) | Kd (CeTb, colchicine site) | inhibition at 50 µM (BTb, colchicine site) | Brain tubulin (BTb) % inhibition at 60 min (Brain tubulin (BTb)) | Erythrocyte tubulin (CeTb) % inhibition at 30 min [4, 14] | other results
1 | CCCSc1ccc2nc(NC(=O)OC)[nH]c2c1 [Albendazole] | nb | nb | 104 ± 12 µM | 35 ± 4 µM | 35 µM | 35% | 31 µM |  |  |  | Brain tubulin (BTb) Kd ([1]; competition titration, 1 µM tubulin, 5 µM MDL, calculated with Equation 4, nb = no binding detected, listed as albendazole): no detectable binding; BTb % (inhibition of MDL binding) (BTb, colchicine site): <1%; inhibition of polymerization of BTb [3]: little or no inhibition; inhibition of polymerization of BTb ([3]; listed as albendazole (ABZ)): not significantly inhibited
2 | COC(=O)Nc1nc2ccccc2[nH]1 [Carbendazim] | nb | nb | 37 ± 5.4 µM | 13 ± 1.8 µM |  |  | 12 µM |  |  |  | Brain tubulin (BTb) Kd ([1]; competition titration, 1 µM tubulin, 5 µM MDL, calculated with Equation 4, nb = no binding detected, listed as carbendazim): no detectable binding; inhibition at 50 µM (CeTb, colchicine site): 58%
3 | COc1ccc(/C=C\c2cc(OC)c(OC)c(OC)c2)cc1O [Combretastatin A4, cis-Combretastatin A4] |  |  |  |  |  |  |  | 92% |  |  | CeTb % (inhibition of MDL binding) (CeTb, colchicine site): 64%; Kd (BBTb): 0.12 µM
4 | COc1ccc(OC)c(C(=O)/C(C)=C/c2ccc(N(C)C)cc2)c1 [MDL, (E)-1-(2,5-dimethoxyphenyl)-3-[4-(dimethylamino)phenyl]-2-methylprop-2-en-1-one] |  |  |  |  |  |  |  |  | 64% | 38% | Kd [5]: 0.51 ± 0.079 µM; Kd (Rat brain tubulin (RBTb)): 0.45 ± 0.046 µM; Kd [6]: 0.54 ± 0.082 µM; Kd ([7]; 1 µM tubulin, PM buffer, 5% DMSO, 25°C, ± standard error of fit, read-out: Kd,MDL, chicken erythrocytes (CeTb)): 2.6 ± 0.24 µM; MDL affinity for CeTb, fold weaker than to brain tubulins ([7]; direct MDL titration): ~5 fold; Ratio: Kd of MDL and CeTb divided by Kd of MDL and BBTb ([7]; direct MDL titration): 5
5 | COC(=O)Nc1nc2ccc(C(=O)c3ccccc3)cc2[nH]1 [Mebendazole] |  |  | 6.8 ± 0.73 µM | 2.3 ± 0.25 µM | 2.6 µM | 90% | 1.8 µM |  | 92% | 25% | Kd ([1]; competition titration, 1 µM tubulin, 5 µM MDL, calculated with Equation 4, nb = no binding detected, read-out: Brain tubulin (BTb) Kd): 1.3 ± 0.23 µM; IC50 ([1]; competition titration, 1 µM tubulin, 5 µM MDL, nb = no binding detected, read-out: Brain tubulin (BTb) IC50): 14 ± 2.5 µM; Ratio: Kd of the drug and CeTb divided by the Kd of the drug and BBTb ([2]; ratio >1 = weaker binding to CeTb): 1.9; inhibition at 50 µM (BTb, colchicine site; [13]): 82%; Kd (BTb, colchicine site; from single-point data (50 µM drug) fitted with single-site isotherm, Eq. 4, read-out: BTb Kd(app)): 1 µM
6 | COC(=O)Nc1nc2ccc(C(=O)c3cccs3)cc2[nH]1 [Nocodazole] |  |  |  |  |  |  |  | 85% | 55% |  | Erythrocyte tubulin (CeTb) % inhibition at 30 min [4]: 90%; CeTb % (inhibition of MDL binding) (CeTb, colchicine site): 96%; Kd (BTb): 2.5 µM
7 | CCCOc1ccc2nc(NC(=O)OC)[nH]c2c1 [Oxibendazole] | nb | nb | 36 ± 5.6 µM | 12 ± 1.9 µM | 12 µM | 56% | 13 µM |  |  |  | Brain tubulin (BTb) Kd ([1]; competition titration, 1 µM tubulin, 5 µM MDL, calculated with Equation 4, nb = no binding detected, listed as oxibendazole): no detectable binding; BTb % (inhibition of MDL binding) (BTb, colchicine site; [13]): <1%; BTb % (inhibition of MDL binding) (BTb, colchicine site; 50 µM drug, 1 µM tubulin, 5 µM MDL, single point, listed as oxibendazole): < 10%
8 | COc1cc([C@@H]2c3cc4c(cc3[C@H](O)[C@H]3COC(=O)[C@H]23)OCO4)cc(OC)c1OC [Podophyllotoxin] |  |  | 15 ± 0.53 µM | 4.9 ± 0.18 µM | 4.9 µM |  |  | 90% | 90% | 95% | IC50 [1]: 4 ± 1 µM; Kd ([1]; Brain tubulin (BTb) Kd): 0.37 ± 0.035 µM; Kd ([1]; Brain tubulin (BTb) Kd (Table 4, selected drugs)): 0.37 µM; Ratio: Kd of the drug and CeTb divided by the Kd of the drug and BBTb [2]: 13; Kd (BTb, colchicine site): 0.73 µM; inhibition at 50 µM (CeTb, colchicine site; [13]): 81%; Kd (rat brain tubulin): 0.55 µM
